This note sets out measurements from patent publication US5674909A, “Derivatives of 2-amino-1,2,3,4-tetrahydronaphthalene active on the cardiovascular system” (Zambon Group, priority 1994, dated 1997).

Counter-ions that a name gives are not always drawn.

Assay [1] has as its target D1 receptor (Rattus norvegicus, UniProt P18901). The assay can be described thus: biochemical. Format: binding, rat (Sprague-Dawley). To be noted: [3H]-SCH23390 0.2 nM, rat striated membranes, pH 7.4, 37° C., 20 minutes; read-out: Affinity [K1 (nM)] towards D1 receptor. How it is done:
(§1) The tissue were homogenized in 50 mM Tris/HCl buffer at pH 7.4 (1:100 w/v).
(§2) The homogenate was centrifuged and the pellet resuspended, recentrifuged and resuspended again in 50 mM Tris/HCl buffer at pH 7.4 containing 120 mM NaCl, 5 mM KCl, 2 mM CaCl2 and 1 mM MgCl2.
The mixture was incubated with different concentrations of the tested compounds at 37° C. for 20 minutes, filtered under vacuum through Whatman GF/C filters and then washed 4 times with 5 ml of 50 mM Tris/HCl buffer (pH 7.4) cooled with ice.

Assay [2] addresses D2 receptor (Rattus norvegicus, UniProt P61169). Nature of the assay: biochemical. To be noted: [3H]-domperidone 0.3 nM, rat striated membranes, 0.01% BSA, 37° C., 30 minutes; read-out: Affinity [K1 (nM)] towards D2 receptor. It counts as binding, rat (Sprague-Dawley). How it is done:
as §1, §2
Furthermore, bovine serum albumine (BSA) (0.01%) was added.
The mixture was incubated at 37° C. for 30 minutes for each concentration of tested compounds.

The test system of assay [3] is D1 -like (Rabbit Splenic Artery). The assay can be described thus: D1-like activity in the Rabbit Splenic Artery (RSA) test. To be noted: agonist activity at the peak of the effect; contracted with U46619 0.1 μM. How it is done: Arterial rings were prepared according to Semeraro et al., Naunyn. Schmied. Arch. Pharmacol., 1990, 342, 539.
The arterial preparations were contracted with U46619 (9,11-di-deoxy-11α,9α-epoxy-methanoprostaglandin F2α) at the submaximal concentration 0.1 μM.
(§3) The tested compounds were cumulatively administered.
(§4) Ref. A was used as reference substance.
(§5) Agonist activity evaluated at the peak of the effect and expressed as potency ratio (EC50 of Ref. A/EC50 of tested compound) is reported in table 2.

Assay [4] has as its target T1, D2 -like (Rabbit Ear Artery) (Oryctolagus cuniculus, UniProt G1T1Q0).
T1 construct: the central ear artery was dissected into 3 mm long rings; from tissue; host or cells: rabbit central ear artery rings (male New Zealand rabbits), electrically stimulated
Nature of the assay: D2-like activity in the Rabbit Ear Artery (REA) test. Details: species or system New Zealand rabbit. To be noted: agonist activity at the peak of the effect; electrically stimulated. How it is done:
Arterial rings were prepared according to the method described by Steinsland et al., Science, 1978, 443, 199, modified as follows. Male New Zealand rabbits weighing 2.5-3 Kg were sacrificed by intravenous injection of an excess of pentobarbital sodium and exsanguinated. The two ears were taken away and the central ear artery was dissected into 3 mm long rings.
These preparations were set up in a 25 ml organ bath containing Krebs solution (mM/l): NaCl 118, KCl 4.7, CaCl2 2.5, MgSO4 1.2, NaHCO3 25, KH2 PO4 1.2, glucose 11.1, equilibrated with 95% 02 -5% CO2 and maintained at 35°±1° C.
Krebs solution was medicated with EDTA (10 μM) to prevent cathecolamine oxydation, desipramine (0.1 μM) and corticosterone (30 μM), to block neuronal and extraneuronal cathecolamine uptake. The preparations were electrically stimulated (10 Hz, 1 msec, 40-80 mA, 500 msec duration) at 5 minutes intervals.
as §3, §4, §5

Chain of D2 receptor (P61169 whole entry): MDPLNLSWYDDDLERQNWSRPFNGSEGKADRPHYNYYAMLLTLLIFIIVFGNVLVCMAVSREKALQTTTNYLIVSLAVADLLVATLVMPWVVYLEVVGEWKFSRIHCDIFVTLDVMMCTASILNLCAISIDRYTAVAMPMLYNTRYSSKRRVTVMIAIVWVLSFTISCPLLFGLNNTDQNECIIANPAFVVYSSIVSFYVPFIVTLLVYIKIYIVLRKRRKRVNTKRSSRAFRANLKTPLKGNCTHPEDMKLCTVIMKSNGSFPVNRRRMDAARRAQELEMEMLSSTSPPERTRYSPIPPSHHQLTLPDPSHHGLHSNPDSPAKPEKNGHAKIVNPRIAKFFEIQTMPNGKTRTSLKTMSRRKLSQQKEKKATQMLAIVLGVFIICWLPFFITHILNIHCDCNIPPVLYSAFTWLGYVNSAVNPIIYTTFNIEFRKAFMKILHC
Chain of D1 receptor (P18901 whole entry): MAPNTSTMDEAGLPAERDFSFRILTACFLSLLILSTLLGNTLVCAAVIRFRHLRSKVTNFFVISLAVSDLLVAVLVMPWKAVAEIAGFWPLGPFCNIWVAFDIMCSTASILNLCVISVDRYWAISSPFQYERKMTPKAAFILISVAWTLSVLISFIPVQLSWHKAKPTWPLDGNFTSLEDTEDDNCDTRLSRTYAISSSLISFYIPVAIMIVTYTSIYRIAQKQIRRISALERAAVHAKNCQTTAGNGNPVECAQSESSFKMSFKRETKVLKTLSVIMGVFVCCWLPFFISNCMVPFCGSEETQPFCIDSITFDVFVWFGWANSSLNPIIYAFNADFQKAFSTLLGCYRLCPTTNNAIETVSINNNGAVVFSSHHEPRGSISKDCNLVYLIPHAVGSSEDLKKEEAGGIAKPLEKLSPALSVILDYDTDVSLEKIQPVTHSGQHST
T1 sequence (G1T1Q0 1-443): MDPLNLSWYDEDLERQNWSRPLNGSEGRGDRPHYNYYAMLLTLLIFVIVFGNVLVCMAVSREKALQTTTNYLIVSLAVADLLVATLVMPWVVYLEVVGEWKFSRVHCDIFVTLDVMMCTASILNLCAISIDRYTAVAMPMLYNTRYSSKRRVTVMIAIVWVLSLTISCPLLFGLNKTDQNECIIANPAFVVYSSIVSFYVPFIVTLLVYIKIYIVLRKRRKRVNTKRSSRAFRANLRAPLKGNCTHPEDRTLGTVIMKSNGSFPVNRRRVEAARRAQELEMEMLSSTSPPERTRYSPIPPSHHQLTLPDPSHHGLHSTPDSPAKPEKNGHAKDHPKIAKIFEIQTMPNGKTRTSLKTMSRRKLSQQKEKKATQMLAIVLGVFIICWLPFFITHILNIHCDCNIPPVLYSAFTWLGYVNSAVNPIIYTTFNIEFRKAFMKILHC

For `CCCN(CCCCCCNCC1COc2ccccc2O1)[C@H]1CCc2c(ccc(O)c2O)C1` (stereo partly drawn) [Compound 1, (S)-N-propyl-N-[6-[(1,4-benzodioxan-2-yl)methylamino]hexyl]-5,6-dihydroxy-1,2,3,4-tetrahydro-2-naphthylamine dihydrochloride], the Ki in assay [1] was 49 nM; in assay [2] it was 0.66 nM.

Turning to `CCCN(CCCCCCNCCc1ccc2c(c1)OCO2)[C@H]1CCc2c(ccc(O)c2O)C1.Cl.Cl` [Compound 2, (S)-N-propyl-N-[6-[2-(3,4-methylendioxyphenyl)ethylamino]hexyl]-5,6-dihydroxy-1,2,3,4-tetrahydro-2-naphthylamine dihydrochloride], the “D1 -like (RSA) potency ratio (EC50 of Ref. A/EC50 of tested compound)” value (from here on “D1 -like (RSA) potency ratio”) in assay [3] turned out to be 10. Also, in assay [4], the “D2 -like (REA) potency ratio (EC50 of Ref. A/EC50 of tested compound)” value (shortened to “D2 -like (REA) potency ratio”) is given as 0.3. The Ki in assay [1] stood at 25 nM; in assay [2], 0.4 nM.

For the compound `CCCN(CCCCCCN1CCN(c2ccccc2OC)CC1)[C@H]1CCc2c(ccc(O)c2O)C1` [Compound 3, (S)-N-propyl-N-[6-[4-(2-methoxyphenyl)piperazin-1-yl]hexyl]-5,6-dihydroxy-1,2,3,4-tetrahydro-2-naphthylamine trihydrochloride], the figures for the Ki in assay [1] and in assay [2] were 69 nM and 0.31 nM, respectively.

With `CCCN(CCCCCCNCCOc1ccccc1[N+](=O)[O-])[C@H]1CCc2c(ccc(O)c2O)C1` [Compound 4, (S)-N-propyl-N-[6-[2-(2-nitrophenoxy)ethylamino]hexyl]-5,6-dihydroxy-1,2,3,4-tetrahydro-2-naphthylamine dihydrochloride], the values for the Ki in assay [1] and in assay [2] were 78 nM and 1.1 nM, respectively.

On to `CCCN(CCCCCCNCCOc1ccc([N+](=O)[O-])cc1)[C@H]1CCc2c(ccc(O)c2O)C1` [Compound 5, (S)-N-propyl-N-[6-[2-(4-nitrophenoxy)ethylamino]hexyl]-5,6-dihydroxy-1,2,3,4-tetrahydro-2-naphthylamine dihydrochloride], for which the Ki in assay [1] was 69 nM; in assay [2] it was 1.5 nM.

Consider `CCCN(CCCCCCNCCOc1ccc(S(C)(=O)=O)cc1)[C@H]1CCc2c(ccc(O)c2O)C1.Cl.Cl` [Compound 6, (S)-N-propyl-N-[6-[2-(4-methylsulphonylphenoxy)ethylamino]hexyl]-5,6-dihydroxy-1,2,3,4-tetrahydro-2-naphthylamine dihydrochloride], for which the “D1 -like (RSA) potency ratio” value in assay [3] was found to be 10. In assay [4], the “D2 -like (REA) potency ratio” value was 3. Further, the Ki in assay [1] amounted to 81 nM; in assay [2], 1.3 nM.

For the compound `CCCN(CCCCCCNC(=O)COc1ccccc1OC)[C@H]1CCc2c(ccc(O)c2O)C1` [Compound 7, (S)-N-propyl-N-[6-[(2-methoxyphenoxy)acetylamino]hexyl]-5,6-dihydroxy-1,2,3,4-tetrahydro-2-naphthylamine hydrochloride], the values for the Ki in assay [1] and in assay [2] were 370 nM and 0.25 nM, respectively.

Consider `Br.Br.CCCN(CCCCCCNCCSc1ccc(O)cc1)[C@H]1CCc2c(ccc(O)c2O)C1` [Compound 8, (S)-N-propyl-N-[6-[2-(4-hydroxyphenylthio)ethylamino]hexyl]-5,6-dihydroxy-1,2,3,4-tetrahydro-2-naphthylamine dihydrobromide], for which the “D1 -like (RSA) potency ratio” value in assay [3] amounted to 1. Moreover, the “D2 -like (REA) potency ratio” value in assay [4] is recorded as 1.7. Also, the Ki came to 23 nM in assay [1] and 0.1 nM in assay [2].

In the case of `Br.Br.CCCN(CCCCCCNCCCc1ccc(O)cc1)[C@H]1CCc2c(ccc(O)c2O)C1` [Compound 9, (S)-N-propyl-N-[6-[3-(4-hydroxyphenyl)propylamino]hexyl]-5,6-dihydroxy-1,2,3,4-tetrahydro-2-naphthylamine dihydrobromide], the “D1 -like (RSA) potency ratio” value in assay [3] stood at 10. In addition, in assay [4], the “D2 -like (REA) potency ratio” value is 5. Besides, the Ki in assay [1] was determined as 22 nM; in assay [2], 0.15 nM.

On to `Br.Br.CCCN(CCCCCCN1CCc2cc(O)c(O)cc2C1)[C@H]1CCc2c(ccc(O)c2O)C1` [Compound 10, (S)-N-propyl-N-[6-(6,7-dihydroxy-1,2,3,4-tetrahydroisoquinolin-2-yl)hexyl]-5,6-dihydroxy-1,2,3,4-tetrahydro-2-naphthylamine dihydrobromide], for which the “D1 -like (RSA) potency ratio” value in assay [3] turned out to be 1.4. For the same compound, the “D2 -like (REA) potency ratio” value in assay [4] was found to be 2. For the same compound, the Ki in assay [1] turned out to be 117 nM; in assay [2] it was 0.6 nM.

On to `Br.Br.CCCN(CCCCCCNCCCc1ccc(O)c(O)c1)[C@H]1CCc2c(ccc(O)c2O)C1` [Compound 13, (S)-N-propyl-N-[6-[3-(3,4-dihydroxyphenyl)propylamino]hexyl]-5,6-dihydroxy-1,2,3,4-tetrahydro-2-naphthylamine dihydrobromide], for which the “D1 -like (RSA) potency ratio” value in assay [3] was 10. Besides, the “D2 -like (REA) potency ratio” value in assay [4] is 14. The values for the Ki in assay [1] and in assay [2] were 29 nM and 0.4 nM, respectively.

For the compound `Br.Br.Br.CCCN(CCCCCCN1CCN(Cc2ccc(O)cc2)CC1)[C@H]1CCc2c(ccc(O)c2O)C1` [Compound 15, (S)-N-propyl-N-[6-[4-(4-hydroxyphenylmethyl)piperazin-1-yl]hexyl]-5,6-dihydroxy-1,2,3,4-tetrahydro-2-naphthylamine trihydrobromide], the “D1 -like (RSA) potency ratio” value in assay [3] came out at 0.9. The “D2 -like (REA) potency ratio” value in assay [4] is 0.5. The values for the Ki in assay [1] and in assay [2] were 119 nM and 0.24 nM, respectively.

As to `Br.Br.CCCN(CCCCCCNCCCc1ccccc1O)[C@H]1CCc2c(ccc(O)c2O)C1` [Compound 16, (S)-N-propyl-N-[6-[3-(2-hydroxyphenyl)propylamino]hexyl]-5,6-dihydroxy-1,2,3,4-tetrahydro-2-naphthylamine dihydrobromide], the “D1 -like (RSA) potency ratio” value in assay [3] is reported as 3. The “D2 -like (REA) potency ratio” value in assay [4] is on record as 0.8. Further, the Ki in assay [1] stood at 178 nM; in assay [2], 0.2 nM.

Turning to `CCCN(CCCCCCNCCOc1ccc(O)cc1)[C@H]1CCc2c(ccc(O)c2O)C1.Cl.Cl` [Compound 24, (S)-N-propyl-N-[6-[2-(4-hydroxyphenoxy)ethylamino]hexyl]-5,6-dihydroxy-1,2,3,4-tetrahydro-2-naphthylamine dihydrochloride], the “D1 -like (RSA) potency ratio” value in assay [3] is 17. Further, in assay [4], the “D2 -like (REA) potency ratio” value turned out to be 3. The Ki was found to be 45 nM in assay [1] and 1.8 nM in assay [2].

In the case of `CCCN(CCCCCCOCCc1ccc(O)c(O)c1)[C@H]1CCc2c(ccc(O)c2O)C1.Cl` [Compound 25, (S)-N-propyl-N-[6-[2-(3,4-dihydroxyphenyl)ethoxy]hexyl]-5,6-dihydroxy-1,2,3,4-tetrahydro-2-naphthylamine hydrochloride], the “D1 -like (RSA) potency ratio” value in assay [3] came to 1.7. Also, in assay [4], the “D2 -like (REA) potency ratio” value is listed as 1.3. Besides, the Ki is 130 nM in assay [1] and 0.6 nM in assay [2].

Regarding `Br.CCCN(CCCCCCNC(=O)Cc1ccc(O)c(O)c1)[C@H]1CCc2c(ccc(O)c2O)C1` [Compound 34, (S)-N-propyl-N-[6-[(3,4-dihydroxyphenyl)acetylamino]hexyl]-5,6-dihydroxy-1,2,3,4-tetrahydro-2-naphthylamine hydrobromide], the “D1 -like (RSA) potency ratio” value in assay [3] is recorded as 2.5. The “D2 -like (REA) potency ratio” value in assay [4] came out at 5. The Ki in assay [1] is 356 nM; in assay [2], 2.1 nM.
